Measured values: article PMC9596378, “Discovery and molecular basis of subtype-selective cyclophilin inhibitors” (Nature Chemical Biology, 2022)
Where two headings read alike, the source gives them in different places.

How the values were obtained:
Test in all cases: Chymotrypsin coupled prolyl-isomerase assay
Format in all cases: biochemical
[1] = target: T1, CypE K218A (Homo sapiens, UniProt Q9UNP9, K218A)
T1 construct: Lane 6- GS-CypE K218A (131-301);; His6 tag with thrombin site (pET28a LIC); GS remnant stays on the N-terminus (N, cleaved yes); host or cells: E. coli BL21(DE3)
T1 sequence (Q9UNP9 131-301 K218A): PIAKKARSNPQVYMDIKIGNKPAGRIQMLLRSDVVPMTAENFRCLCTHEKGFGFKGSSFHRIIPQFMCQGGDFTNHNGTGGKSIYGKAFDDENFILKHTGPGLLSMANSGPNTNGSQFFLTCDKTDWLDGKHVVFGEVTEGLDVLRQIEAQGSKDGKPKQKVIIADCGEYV
Outline: (§1)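 Recombinant cyclophilin (5 nM final) in 25 mM HEPES pH 7.3, 100 mM NaCl, 0.01% Triton X-100 was preincubated with compound at 2–3 °C. It was then coupled with 25 µM α-chymotrypsin and 5 µM Suc-AAPF-AMC (LiCl/TFE), and AMC fluorescence was followed for 330 s.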

[2] = target: T2, CypE K217A (Homo sapiens, UniProt Q9UNP9, K217A)
T2 construct: Lane 5- GS-CypE K217A (131-301);; His6 tag with thrombin site (pET28a LIC); GS remnant stays on the N-terminus (N, cleaved yes); host or cells: E. coli BL21(DE3)
T2 sequence (Q9UNP9 131-301 K217A): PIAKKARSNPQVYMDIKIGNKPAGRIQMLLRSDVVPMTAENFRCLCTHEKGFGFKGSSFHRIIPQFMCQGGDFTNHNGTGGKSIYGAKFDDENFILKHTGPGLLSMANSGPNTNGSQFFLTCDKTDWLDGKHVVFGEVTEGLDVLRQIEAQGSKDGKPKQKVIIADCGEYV
Outline: as §1

[3] = target: T3, CypE K212A (Homo sapiens, UniProt Q9UNP9, K212A); details: mutant CypE K212A; read-out: Mutant Cyclophilin Prolyl Isomerase Inhibition IC50 Values, CypE K212A
T3 construct: Lane 4- GS-CypE K212A (131-301);; His6 tag with thrombin site (pET28a LIC); GS remnant stays on the N-terminus (N, cleaved yes); host or cells: E. coli BL21(DE3)
T3 sequence (Q9UNP9 131-301 K212A): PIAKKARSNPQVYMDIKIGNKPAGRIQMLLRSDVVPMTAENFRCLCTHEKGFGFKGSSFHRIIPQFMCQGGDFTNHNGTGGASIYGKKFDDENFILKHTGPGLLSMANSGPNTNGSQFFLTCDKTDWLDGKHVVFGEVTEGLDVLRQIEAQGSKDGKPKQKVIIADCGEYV
Outline: as §1

[4] = target: T4, CypD K118E/R124A (Homo sapiens, UniProt P30405, K118E/R124A)
T4 construct: made in house; host or cells: E. coli BL21(DE3)
T4 sequence (P30405 45-207 K118E/R124A): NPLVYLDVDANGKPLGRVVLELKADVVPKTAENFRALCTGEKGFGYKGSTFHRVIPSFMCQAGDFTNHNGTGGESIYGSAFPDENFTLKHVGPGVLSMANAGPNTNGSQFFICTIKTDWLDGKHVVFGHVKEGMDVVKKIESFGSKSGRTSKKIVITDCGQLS
Outline: as §1

Compound	IC50 ([1]; mutant CypE K218A, read-out: Mutant Cyclophilin Prolyl Isomerase Inhibition IC50 Values, CypE K218A) [nM]	IC50 ([1]; prolyl-isomerase inhibition, read-out: IC50 CypE K218A) [nM]	less potent at inhibiting K217A prolyl-isomerase activity compared to wild-type CypE [2] [fold]	IC50 ([2]; mutant CypE K217A, read-out: Mutant Cyclophilin Prolyl Isomerase Inhibition IC50 Values, CypE K217A) [nM]	IC50 [3] [nM]	potency improvement on CypD K118E/R124A compared to wild-type CypD [4] [fold]	preference for CypD K118E/R124A over PPWD1 ([4]; prolyl-isomerase IC50)	selectivity for CypD K118E/R124A over CypA ([4]; prolyl-isomerase IC50) [fold]	IC50 ([4]; prolyl-isomerase inhibition) [nM]
NC(=O)C1CCNC(=O)C=CC(=O)N2CCCC(Cc3ccccc3)(C2)C(=O)NC(Cc2ccc(-c3ccc(C=O)c(B(O)O)c3)cc2)C(=O)NCc2ccccc2CC(=O)N1 (stereo not drawn) [Compound C3A]	2000	19 ± 3	150	19	30				
NCCCc1ccc(-c2ccc(C[C@@H]3NC(=O)[C@]4(Cc5ccccc5)CCCN(C4)C(=O)/C=C/C(=O)NCC[C@@H](C(=O)NCCOCCN)NC(=O)Cc4ccccc4CNC3=O)cc2)cc1 [Compound B32]						100	at least 13 fold	> 100	60
